In US4472320A (priority 1981, dated 1984):
Counter-ions that a name gives are not always drawn.

Assays:
guinea pigs = conditions: guinea pig, in vivo; cited from earlier work
[1] = target: AChE, eel (acetylcholinesterase, EC 3.1.1.7) (Electrophorus electricus, UniProt O42275); type: biochemical, electric eel
[2] = target: BuChE, horse (butyrylcholinesterase, EC 3.1.1.8) (Equus caballus, UniProt P81908); type: biochemical
Sequence of BuChE, horse (butyrylcholinesterase, EC 3.1.1.8) (P81908 whole entry): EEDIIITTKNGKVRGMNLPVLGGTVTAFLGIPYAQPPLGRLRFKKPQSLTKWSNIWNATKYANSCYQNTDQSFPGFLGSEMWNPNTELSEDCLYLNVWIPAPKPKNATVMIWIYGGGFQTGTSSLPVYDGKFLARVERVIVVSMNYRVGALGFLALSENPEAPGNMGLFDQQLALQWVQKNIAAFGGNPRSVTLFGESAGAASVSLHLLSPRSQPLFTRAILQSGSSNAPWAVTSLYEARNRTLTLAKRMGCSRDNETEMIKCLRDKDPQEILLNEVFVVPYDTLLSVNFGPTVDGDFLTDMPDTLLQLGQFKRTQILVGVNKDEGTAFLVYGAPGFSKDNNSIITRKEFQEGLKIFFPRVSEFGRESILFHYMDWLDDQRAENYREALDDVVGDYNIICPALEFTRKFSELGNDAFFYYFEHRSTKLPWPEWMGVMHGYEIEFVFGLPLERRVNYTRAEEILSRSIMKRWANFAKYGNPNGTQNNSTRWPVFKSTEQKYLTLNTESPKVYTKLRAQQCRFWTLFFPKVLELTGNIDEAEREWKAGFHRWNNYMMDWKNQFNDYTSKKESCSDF

Sequence of AChE, eel (acetylcholinesterase, EC 3.1.1.7) (O42275 24-633): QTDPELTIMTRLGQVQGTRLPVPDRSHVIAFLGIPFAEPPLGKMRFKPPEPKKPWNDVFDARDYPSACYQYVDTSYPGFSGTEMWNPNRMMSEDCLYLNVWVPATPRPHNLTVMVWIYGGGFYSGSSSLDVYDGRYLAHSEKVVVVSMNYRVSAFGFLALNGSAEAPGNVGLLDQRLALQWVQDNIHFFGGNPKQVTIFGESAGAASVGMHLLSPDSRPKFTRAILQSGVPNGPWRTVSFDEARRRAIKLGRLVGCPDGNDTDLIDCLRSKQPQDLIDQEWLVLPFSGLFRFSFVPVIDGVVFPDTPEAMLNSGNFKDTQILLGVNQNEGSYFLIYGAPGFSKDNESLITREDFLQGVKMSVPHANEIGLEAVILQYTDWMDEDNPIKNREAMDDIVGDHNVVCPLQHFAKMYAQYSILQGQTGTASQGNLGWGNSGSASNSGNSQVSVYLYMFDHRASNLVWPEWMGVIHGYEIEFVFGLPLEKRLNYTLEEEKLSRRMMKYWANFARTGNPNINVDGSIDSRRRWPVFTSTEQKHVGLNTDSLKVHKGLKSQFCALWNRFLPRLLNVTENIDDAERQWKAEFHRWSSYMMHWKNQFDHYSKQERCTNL

Row | Compound | maximum dosage which does not result in side-effects (guinea pigs) | effect of oxime on spontaneous reactivation of TDPI-inhibited AChE [1] | effect of oxime on reactivation of TDPI-inhibited BuChE [2]
1 | CNC(=O)Oc1ccc2c(c1)[C@]1(C)CCN(C)[C@@H]1N2C [physostigmine sulfate] | 0.1 mg/kg | – | –
2 | C[n+]1cccc(C=NO)c1 [3-PAM] | – | did not enhance the regeneration of enzyme activity | –
3 | CN(C)C(=O)Oc1ccc[n+](C)c1 [pyridostigmine iodide] | 0.1 mg/kg | – | –
4 | C[n+]1ccccc1C=NO.[I-] [2-PAM, 2-hydroximinomethyl-1-methylpyridinium iodide] | – | accelerated significantly the spontaneous reactivation | enhanced the reactivation of horse serum BuChE
